Measurements: paper PMC12113998, “Exploring Multivalent Architectures for Binding and Stabilization of N-Acetylgalactosamine 6-Sulfatase” (Molecules, 2025)
Marks after values point to notes of the source that are not given here.

Target: T1, N-acetylgalactosamine-6-sulfatase (GALNS) (Homo sapiens, UniProt P34059)
T1 construct: Isolated leukocytes were disrupted by sonication; from tissue; host or cells: human leukocytes from healthy donors (sonicated homogenate)
T1 sequence (P34059 27-522): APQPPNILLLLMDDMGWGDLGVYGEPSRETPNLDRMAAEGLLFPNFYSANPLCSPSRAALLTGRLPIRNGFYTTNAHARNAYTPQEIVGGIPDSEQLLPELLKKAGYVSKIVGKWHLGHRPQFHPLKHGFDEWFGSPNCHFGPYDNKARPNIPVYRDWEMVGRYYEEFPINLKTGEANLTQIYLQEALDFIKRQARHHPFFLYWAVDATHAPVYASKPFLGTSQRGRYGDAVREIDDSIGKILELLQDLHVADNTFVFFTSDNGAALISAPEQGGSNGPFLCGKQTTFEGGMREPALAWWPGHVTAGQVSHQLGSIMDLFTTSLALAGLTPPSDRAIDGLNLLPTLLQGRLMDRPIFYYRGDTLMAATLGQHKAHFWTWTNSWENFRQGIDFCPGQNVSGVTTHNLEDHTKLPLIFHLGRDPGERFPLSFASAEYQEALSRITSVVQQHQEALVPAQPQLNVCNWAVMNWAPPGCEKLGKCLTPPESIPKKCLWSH
Assay: GALNS inhibition in leukocyte homogenate from healthy donors (4-methylumbelliferyl-β-galactoside-6-sulfate substrate, fluorescence)
Type: biochemical
Experimental: A preliminary biological screening of the newly synthesized multivalent compounds at 1 mM inhibitor concentration was performed against GALNS in leukocytes isolated from healthy donors. Enzymatic assays were performed in triplicate by incubating leukocyte homogenate, compound, and substrate (4-methylumbelliferyl-β-galactoside-6-sulfate.Na) in Na-acetate/acetic acid buffer (pH 4.3) at 37 °C for 17 h, followed by the addition of β-galactosidase from Aspergillus oryzae and further incubation to release 4-methylumbelliferone. The fluorescence was measured, and the inhibition percentages were calculated relative to the control. The results are summarized in Table 1, Table 2, Table 3 and Table 4, along with new inhibition data toward GALNS of multivalent inhibitors whose synthesis was reported previously by our group (23, 26, 30, 51, 52–54). For compounds showing poor to negligible inhibitory activity, only the GALNS inhibition percentage at 1 mM was reported.
Enzymatic assays towards human GALNS in leukocytes isolated from healthy donors.
All experiments on biological materials were performed in accordance with the ethical standards of the institutional research committee and with the 1964 Helsinki Declaration and its later amendments. In keeping with ethical guidelines, all blood and cell samples were obtained for storage and analysed only after written informed consent of the patients (and/or their family members) was obtained, using a form approved by the local Ethics Committee (Assigned code: Lysolate “Late -onset Lysosomal Storage Disorders (LSDs) in the differential diagnosis of neurodegenerative diseases: development of new diagnostic procedures and focus on potential pharmacological chaperones (PCs).” Project ID code: 16774_bio, 5 May 2020, Comitato Etico Regionale per la Sperimentazione Clinica della Regione Toscana, Area Vasta Centro, Florence, Italy). Control and patient samples were anonymized and used only for research purposes.
A preliminary biological screening of compounds at 1 mM was performed towards GALNS in leukocytes isolated from healthy donors (controls). Isolated leukocytes were disrupted by sonication, and a micro BCA protein assay kit (Sigma–Aldrich) was used to determine the total protein amount for the enzymatic assay, according to the manufacturer instructions. Enzyme activity was measured by setting the reaction in 0.2 mL tubes and performing the experiments in triplicates as follows. Compound solution (3 µL), 4.29 μg/μL leukocyte homogenate 1:5 (7 μL) and 20 µL of 4-methylumbelliferyl-β-galactoside-6-sulfate.Na substrate solution (6.66mM) in Na-Acetate/acetic acid buffer (0.1 M/0.1 M, pH 4.3) containing 0.1 M NaCl, 0.02% (w/v) NaN3 and 5 mM Pb-acetate were incubated for 17 h at 37 °C. After step one, the tubes were placed on an ice cooler and the reaction was stopped by addition of 5 µL of Na-phosphate buffer (0.9 M, pH 4.3) containing 0.02 % (w/v) of NaN3 and by efficient mixing with vortex. Then, 10 µL of β-galactosidase from Aspergillus oryzae (β-Gal-A-10U) were added to each sample and samples were incubated for 2 h at 37°C. At the end of this period the tubes were placed on an ice cooler and the samples were transferred in a cooled flat –bottomed 96 well plate and the reaction was immediately stopped with 2 00 µL of NaHCO3/Na2CO3 buffer (0.5 M/0.5 M pH 10.7) containing 0.025% (w/v) of Triton X -100. Fluorescence was measured in a SpectraMax M2 microplate reader (Molecular-Devices) using a 365 nm excitation wavelength and a 435 nm emission wavelength. Percentage of GALNS inhibition was given with respect to the control (without compound).
Experiments were performed in triplicate, and the mean ± S. D. was calculated.
Figure S52. GALNS activity in the absence Figure S53. GALNS activity in the absence (Ctrl) and presence of scaffold 12 at a 1 mM (Ctrl) and presence of the new multivalent […]
The corresponding calculated inhibition of the main text) at a 1 mM concentration in […]

[1] = calculated considering 34 as the monovalent reference compound

Row | rp (relative potency) [1] | rp (relative potency) (calculated with respect to the scaffold 38) | IC50 (human leukocyte extracts) | SMILES
1 | 83 | 1.5 |  | O=C(NC(COCc1cn(CCCCCCN2CC(O)C(O)C2CO)nn1)(COCc1cn(CCCCCCN2CC(O)C(O)C2CO)nn1)COCc1cn(CCCCCCN2CC(O)C(O)C2CO)nn1)c1cc(C(=O)NC(COCc2cn(CCCCCCN3CC(O)C(O)C3CO)nn2)(COCc2cn(CCCCCCN3CC(O)C(O)C3CO)nn2)COCc2cn(CCCCCCN3CC(O)C(O)C3CO)nn2)cc(C(=O)NC(COCc2cn(CCCCCCN3CC(O)C(O)C3CO)nn2)(COCc2cn(CCCCCCN3CC(O)C(O)C3CO)nn2)COCc2cn(CCCCCCN3CC(O)C(O)C3CO)nn2)c1 (stereo not shown) [Compound 1]
2 | 139 ^[b] |  | 28 ± 5 µM | OCC1C(O)C(O)CN1CCCCCCn1cc(COCC(COCc2cn(CCCCCCN3CC(O)C(O)C3CO)nn2)(COCc2cn(CCCCCCN3CC(O)C(O)C3CO)nn2)NCc2cc(CNC(COCc3cn(CCCCCCN4CC(O)C(O)C4CO)nn3)(COCc3cn(CCCCCCN4CC(O)C(O)C4CO)nn3)COCc3cn(CCCCCCN4CC(O)C(O)C4CO)nn3)cc(CNC(COCc3cn(CCCCCCN4CC(O)C(O)C4CO)nn3)(COCc3cn(CCCCCCN4CC(O)C(O)C4CO)nn3)COCc3cn(CCCCCCN4CC(O)C(O)C4CO)nn3)c2)nn1 (stereo not shown) [Compound 36]
